Measurements as given in ChEMBL document CHEMBL1153832, “Identification and characterization of UK-201844, a novel inhibitor that interferes with human immunodeficiency virus type 1 gp160 processing” (Antimicrob Agents Chemother, 2007).
Active and inactive are the calls of the source. No cut-off for these calls is given here.

What was measured:
[1] = system: Human immunodeficiency virus 1; experiment: Antiviral activity against HIV1 NL4-3 transfected in HEK293 cells assessed as inhibition of infectious virus production at 0.12 uM; type: functional; design: scale not given: the % may be the effect or the level left
[2] = system: Human immunodeficiency virus 1; experiment: Antiviral activity against HIV1 bearing HIV1 NL4-3 envelope infected in human MT2 cells assessed as inhibition of HIV-envelope packed virions at 0.12 uM after 72 hrs by virus production assay relative to control; type: functional; conditions: Human immunodeficiency virus 1, MT2, 72 h
[3] = system: Human immunodeficiency virus 1; experiment: Inhibition of HIV1 NL4-3 proteins incorporation into virions transfected in HEK293 cells assessed as aberrant Env protein at 0.12 uM by Western blot; type: functional, organism-based
[4] = system: Human immunodeficiency virus 1; experiment: Antiviral activity against HIV1 bearing HIV1 NL4-3 envelope infected in human HeLa CD4 cells coexpressing LTR/beta-Gal gene assessed as reduction in virus-induced beta-galactosidase reporter gene activity after 72 hrs by single-cycle infection assay; type: functional, organism-based; conditions: Human immunodeficiency virus 1, HeLa
[5] = system: Human immunodeficiency virus 1; experiment: Antiviral activity against HIV1 bearing VSV envelope infected in human HeLa CD4 cells coexpressing LTR/beta-Gal gene assessed as reduction in virus-induced beta-galactosidase reporter gene activity after 72 hrs by single-cycle infection assay; type: functional, organism-based; conditions: Human immunodeficiency virus 1, HeLa
[6] = system: Human immunodeficiency virus 1; experiment: Inhibition of HIV1 NL4-3 proteins incorporation into virions transfected in HEK293 cells assessed as unprocessed gp160 Env protein at 0.12 uM by Western blot; type: functional, organism-based
[7] = system: Human immunodeficiency virus 1; experiment: Antiviral activity against HIV1 bearing VSV envelope infected in human MT2 cells assessed as inhibition of VSV-envelope packed virions at 0.12 uM after 72 hrs by virus production assay relative to control; type: functional; conditions: Human immunodeficiency virus 1, MT2, 72 h

**Q.** `Cc1c(O)cccc1C(=O)N[C@@H](CSc1ccccc1)[C@H](O)CN1C[C@H]2CCCC[C@H]2C[C@H]1C(=O)NC(C)(C)C` [NELFINAVIR] was tested. Which Activity [1] did it give?
**A.** Its Activity is 94%.

**Q.** What about the inhibition in vivo at 0.12 µM [2] of the same compound?
**A.** Its inhibition in vivo at 0.12 µM is 88%.

**Q.** And the Activity [3]?
**A.** The Activity was “Active”.

**Q.** And the EC50 [4]?
**A.** The EC50 was over 1000 nM.

**Q.** And the EC50 [5]?
**A.** Its EC50 is over 1000 nM.

**Q.** And the Activity [6]?
**A.** Its Activity is “Active”.

**Q.** What about the inhibition in vivo at 0.12 µM [7] of the same compound?
**A.** Its inhibition in vivo at 0.12 µM is 97%.
